Experimental data reported in patent US6037357A, “N-benzoyl-α-alkylated azatyrosines as anticancer agents” (Unitech Pharmaceuticals, Inc., priority 1999, dated 2000).
Entries after “also recorded” stand apart in the source; their conditions may differ.

Key:
[1] = tested on: breast cancer cell (BC-M1); test: Cytotoxic assay by colorimetric MTT assay (growth inhibition), breast cancer; assay type: cell-based, human; conditions: for IC50: Homo sapiens, 72 h, BC-M1, 10000 cells per well, 3 days incubation, mean of 4 experiments
Description: (§1) The in-vitro studies for evaluating these α-alkylatedderivatives of azatyrosine were performed and the general procedures are listed as follow:
(§2) Human stomach cancer cell line (SC-M1), and human breast cancer cell line (BC-M1) sampled from inpatients at Tri-service General Hospital in Taipei (Taiwan) were cultured and used in the experiments. All cells from primary culture and subculture were grown in 10% RPMI 1640 supplemented with 100 U/mL penicillin G, 100 μg/mL amphotericin B, and 10% fetal calf serum (FCS) in a 5% CO2 incubator at 37° C.
(§3) The cytotoxicity of these compounds against cultured cancer cells was determined by utilizing in-vitro MTT assay. L-azatyrosine and its α-alkylated derivatives were dissolved in milli-Q water at a concentration of 1 mg/mL and diluted with 10% FCS-RPMI to various concentrations, respectively. Single cell suspension (100 μL) and each compounds (100 μL) were added to 96-well flat-bottom microplate. 10% FCS-RPMI (100 μL) was used as a control group. After 3 days incubation at 37° C. in a 5% CO2 incubator, stock MTT (10 μL of 5 mg/mL for each 100 μL solution in well) solution was added to all wells. After additional 2 h incubation in a 5% CO2 incubator, The mixture was centrifuged (1000 rpm for 5 min) and the supernatant was carefully pipetted out. The residue was mixed well with DMSO (100 μL). The optical density of plates was recorded on a MRX Spectrophotometer (Dynatech, Guernsey, UK) at a wavelength of 550 nm.
(§4) Fractional inhibition was calculated as [1-(optical density of sample/optical density of control)]. The IC50 values for each compound were determined as a parameter for cytotoxicity, which is the concentration of a test compound exerting 50% survival of cancer cells, compared to untreated controls. Each value is the mean of four experiments. A specific example of the in-vitro study is shown Example 8.
(§5) A series of α-alkylated derivatives of L-azatyrosine were studied for their in-vitro effects according to the above procedures. The growth inhibition of L-azatyrosine and its derivatives on human cancer cell lines (BC-M1 and SC-M1) has been shown on Table 1.

[2] = tested on: stomach cancer cell (SC-M1); test: Cytotoxic assay by colorimetric MTT assay (growth inhibition), stomach cancer; assay type: cell-based, human; conditions: for IC50: Homo sapiens, 72 h, SC-M1, 10000 cells per well, 3 days incubation, mean of 4 experiments
Description: as §1, §2, §3, §4, §5

[3] = tested on: activated c-Ha-ras-transformed NIH3T3 cells; conditions: cited from earlier work
[4] = tested on: cells possessing normal ras gene; conditions: cited from earlier work
[5] = tested on: 7,12-dimethylbenz[a]anthracene or methylnitrosourea-induced carcinogenesis in mice; conditions: mice harboring a normal c-Ha-ras gene; cited from earlier work
[6] = tested on: pappilomas induced by a chemical carcinogen; conditions: 2 mg/mouse once every two days for 12 days; cited from earlier work
TSU-Prl = conditions: incubation for 7 days; cited from earlier work
DU-145 = conditions: incubation for 7 days; cited from earlier work
PC-3 = conditions: incubation for 7 days; cited from earlier work
[7] = tested on: human prostate cancer cells; conditions: cited from earlier work
anticancer activity = conditions: cited from earlier work
[8] = tested on: prostate tumorigenic growth; conditions: cited from earlier work

| SMILES | IC50 [1] [µM] | IC50 [2] [µM] | further results |
| --- | --- | --- | --- |
| CCOC(=O)C(Cc1ccc(O)cn1)(CC(C)C)NC(=O)c1ccccc1 (racemic) [Compound 9b, Ethyl N-benzoyl-α-isobutyl-DL-azatyrosinate] | 700 | 600 | – |
| CC(Cc1ccc(O)cn1)(NC(=O)c1ccccc1)C(=O)O (racemic) [Compound 8a, N-Benzoyl-α-methyl-DL-azatyrosine] | 1300 | 800 | – |
| N[C@@H](Cc1ccc(O)cn1)C(=O)O [L-Azatyrosine, L-azatyrosine] | 2200 | 1600 | reversion of activated c-Ha-ras-transformed NIH3T3 cells to the apparently normal phenotype [3]: induces permanent reversion; effect on the growth of cells possessing normal ras gene [4]: without significantly affecting the growth; inhibition of 7,12-dimethylbenz[a]anthracene or methylnitrosourea-induced carcinogenesis [5]: inhibits; block of pappilomas induced by a chemical carcinogen [6]: can block pappilomas; in-vitro growth inhibition, TSU-Prl (TSU-Prl): greater than 95%; in-vitro growth inhibition, DU-145 (DU-145): greater than 95%; in-vitro growth inhibition, PC-3 (PC-3): greater than 95%; reversion efficiency on human prostate cancer cells [7]: high reversion efficiency; concentrations required for the anticancer activity (anticancer activity): 1 to 2 mM; inhibition of prostate tumorigenic growth [8]: inhibit prostate tumorigenic growth |
| CC(C)CC(Cc1ccc(O)cn1)(NC(=O)c1ccccc1)C(=O)O (racemic) [Compound 8b, N-Benzoyl-α-isobutyl-DL-azatyrosine] | 1000 | 1200 | – |
| C[C@H](NC(=O)C(Cc1ccccc1)(Cc1ccc(O)cn1)NC(=O)c1ccccc1)c1ccccc1 (mixture of isomers) [Compound 10c, N-Benzoyl-α-benzyl-DL-azatyrosyl-(S)-1-phenylethylamide] | 600 | 80 | cytotoxicity / growth inhibition compared with L-azatyrosine (in words), BC-M1 [1]: higher growth inhibition than that of L-azatyrosine; cytotoxicity / growth inhibition compared with L-azatyrosine (in words), SC-M1 [2]: higher growth inhibition than that of L-azatyrosine; also recorded: excellent cytotoxicity on SC-M1 compared with L-azatyrosine |
| O=C(NC(Cc1ccccc1)(Cc1ccc(O)cn1)C(=O)O)c1ccccc1 (racemic) [Compound 8c, N-benzoyl-α-benzyl-DL-azatyrosine] | 600 | 600 | – |
| CCOC(=O)C(Cc1ccccc1)(Cc1ccc(O)cn1)NC(=O)c1ccccc1 (racemic) [Compound 9c, Ethyl N-benzoyl-α-benzyl-DL-azatyrosinate] | 900 | 1000 | – |
| CC(C)CC(Cc1ccc(O)cn1)(NC(=O)c1ccccc1)C(=O)N[C@@H](C)c1ccccc1 (mixture of isomers) [Compound 10b, N-Benzoyl-α-isobutyl-DL-azatyrosyl-(S)-1-phenylethylamide] | 300 | 300 | cytotoxicity / growth inhibition compared with L-azatyrosine (in words), BC-M1 [1]: higher growth inhibition than that of L-azatyrosine; cytotoxicity / growth inhibition compared with L-azatyrosine (in words), SC-M1 [2]: higher growth inhibition than that of L-azatyrosine |
